By IC50 is commonly meant the concentration that inhibits the measured activity by half. A lower IC50 goes with greater potency in that assay.

Consider 15 molecules from patent US20250129095A1, “ANNULATED 2-AMINO-3-CYANO THIOPHENES AND DERIVATIVES FOR THE TREATMENT OF CANCER” (Boehringer Ingelheim Int'l GmbH Corp., priority 2021, published 2025).

Molecules are shown by their SMILES. ≈ marks a conversion by molar mass, not a printed value. Like-named read-outs stand apart in the source and are kept apart here.

One series relates to SK-CO-1 cells. The experiment in a line: SK-CO-1 CTG proliferation assay (120 h) (CRC, G12V). In kind it is cell-based. To be noted: Homo sapiens. The protocol: (§1) SK-CO-1 cells (ATCC HTB-39) are dispensed into 384-well plates, flat and clear bottom (Greiner, PNr. 781091) at a density of 500 cells per well in 60 μL EMEM (Sigma M5650)+10% Fetal Calf Serum (HyClone, PNr.: SH30084.03) and incubated at 37° C. in a CO2 incubator overnight. The next day, compounds (10 mM stock in DMSO) are added with the ECHO acoustic liquid handler system (Beckman Coulter), including DMSO controls. Plates are incubated for 120 h, and cell viability is measured using CellTiter-Glo luminescent cell viability reagent (Promega product code G7570). Viability (stated as percent of control) is defined as relative luminescence units RLU of each well divided by the RLU of cells in DMSO controls.

Series [1] in a line: Solubility measurement (DMSO solution precipitation method). In kind it is physicochemical. To be noted: aqueous buffer, kinetic from dmso stock. The protocol: The DMSO solution is diluted with an aqueous medium (McIlvaine buffer with pH=4.5 or 6.8) to a final concentration of 250 μM. After 24 h of shaking at ambient temperature a potentially formed precipitate is removed by filtration. The concentration of the test compound in the filtrate is determined by LC-UV methods by calibrating the signal to the signal of a reference solution with complete dissolution of the test compound in acetonitrile/water (1:1) with known concentration.

Another series relates to SAS cells. Briefly: SAS CTG proliferation assay (120 h) (HNSCC, wt amplified). It is filed as cell-based. The protocol:
as §1, with “SAS” for “SK-CO-1”, “(JCRB0260)” for “(ATCC HTB-39)”, “300” for “500”, “DMEM:F12 (Gibco 31330-038)+10%” for “EMEM (Sigma M5650)+10%”, “overnight” for “overnight.”

The mark [2] stands for this setting: McIlvaine buffer pH 4.5, 24 h, read-out: Solubility [μg/ml] pH 4.5.
The mark [3] stands for this setting: McIlvaine buffer pH 6.8, 24 h, read-out: Solubility [μg/ml] pH 6.8.

`C[C@H](Oc1cc(OCCO)nc(-c2noc3c2CCC[C@@]32CCCc3sc(N)c(C#N)c32)n1)[C@@H]1CCCN1C` [II-6]: the figures for the IC50 in the series with SK-CO-1 cells and with SAS cells were 88 nM and 40 nM, respectively. For the same molecule, the solubility at 24 h in series [1] (setting [2]) was greater than 121 µg/mL; in series [1] (setting [3]), greater than 119 µg/mL.

`C[C@H](Oc1cc(Oc2nccs2)nc(-c2noc3c2CCC[C@@]32CCCc3sc(N)c(C#N)c32)n1)[C@@H]1CCCN1C` [II-2]: the IC50 stood at 26 nM in the series on SK-CO-1 cells and 44 nM in the series with SAS cells. Moreover, the figures for the solubility at 24 h in series [1] (setting [2]) and in series [1] (setting [3]) were greater than 109 µg/mL and less than 1 µg/mL, respectively.

For `C[C@H](Oc1cc(Oc2cnccn2)nc(-c2noc3c2CCC[C@@]32CCCc3sc(N)c(C#N)c32)n1)[C@@H]1CCCN1C` [II-7], the IC50 with SK-CO-1 cells is 21 nM; with SAS cells it was 1390 nM. Also, the solubility at 24 h was greater than 118 µg/mL in series [1] (setting [2]) and 90 µg/mL (≈ 154 µM) in series [1] (setting [3]).

Take `C[C@H](Oc1cc(N[C@H]2CCOC2)nc(-c2onc3c2CCC[C@@]32CCCc3sc(N)c(C#N)c32)n1)[C@@H]1CCCN1C` [Example I-4]: the values for the IC50 in the series on SK-CO-1 cells and in the series with SAS cells were 762 nM and 719 nM, respectively. The solubility at 24 h in series [1] (setting [2]) is greater than 135 µg/mL; in series [1] (setting [3]), 107 µg/mL (≈ 186 µM).

Regarding `C[C@H](Oc1cc(Nc2ccccn2)nc(-c2noc3c2CCC[C@@]32CCCc3sc(N)c(C#N)c32)n1)[C@@H]1CCCN1C` [II-16], the figures for the solubility at 24 h in series [1] (setting [2]) and in series [1] (setting [3]) were 41 µg/mL (≈ 70.4 µM) and less than 1 µg/mL, respectively.

Turning to `C[C@H](Oc1cc(O[C@H]2CCOC2)nc(-c2noc3c2CCC[C@@]32CCCc3sc(N)c(C#N)c32)n1)[C@@H]1CCCN1C` [II-4], the IC50 with SK-CO-1 cells is 28 nM; in the series on SAS cells, 44 nM. The results for the solubility at 24 h in series [1] (setting [2]) and in series [1] (setting [3]) were 80 µg/mL (≈ 139 µM) and less than 1 µg/mL, respectively.

`C[C@H](Oc1cc(Nc2nccs2)nc(-c2noc3c2CCC[C@@]32CCCc3sc(N)c(C#N)c32)n1)[C@@H]1CCCN1C` [II-12]: the results for the IC50 in the series with SK-CO-1 cells and with SAS cells were 308 nM and 594 nM, respectively. Also, the solubility at 24 h in series [1] (setting [2]) was 2 µg/mL (≈ 3.4 µM); in series [1] (setting [3]), less than 1 µg/mL.

Turning to `C[C@H](Oc1cc(Nc2cccnn2)nc(-c2noc3c2CCC[C@@]32CCCc3sc(N)c(C#N)c32)n1)[C@@H]1CCCN1C` [II-18], the IC50 in the series with SK-CO-1 cells was 133 nM; in the series on SAS cells, 171 nM.

As for `C[C@H](Oc1cc(Oc2cncnc2)nc(-c2noc3c2CCC[C@@]32CCCc3sc(N)c(C#N)c32)n1)[C@@H]1CCCN1C` [II-1], the IC50 worked out at 18 nM in the series on SK-CO-1 cells and 20 nM with SAS cells. For the same molecule, the solubility at 24 h was greater than 137 µg/mL in series [1] (setting [2]) and greater than 124 µg/mL in series [1] (setting [3]).

In the case of `C[C@H](Oc1cc(O[C@H]2CN(C)C(C)(C)C2)nc(-c2noc3c2CCC[C@@]32CCCc3sc(N)c(C#N)c32)n1)[C@@H]1CCCN1C` [II-19], the IC50 in the series with SK-CO-1 cells came to 933 nM; in the series with SAS cells, 297 nM. In addition, the solubility at 24 h was greater than 161 µg/mL in series [1] (setting [2]) and greater than 164 µg/mL in series [1] (setting [3]).

With `C[C@H](Oc1cc(N(C)C)nc(-c2noc3c2CCC[C@@]32CCCc3sc(N)c(C#N)c32)n1)[C@@H]1CCCN1C` [II-10], the IC50 with SK-CO-1 cells turned out to be 1200 nM; in the series on SAS cells, 795 nM. Besides, the solubility at 24 h in series [1] (setting [2]) is greater than 107 µg/mL; in series [1] (setting [3]) it was 95 µg/mL (≈ 178 µM).

Regarding `COCCOc1cc(O[C@@H](C)[C@@H]2CCCN2C)nc(-c2noc3c2CCC[C@@]32CCCc3sc(N)c(C#N)c32)n1` [II-5], the IC50 in the series on SK-CO-1 cells was found to be 23 nM; in the series with SAS cells, 67 nM. Also, the solubility at 24 h in series [1] (setting [2]) is greater than 140 µg/mL; in series [1] (setting [3]), 108 µg/mL (≈ 191 µM).

In the case of `C[C@H](Oc1cc(NCC2COC2)nc(-c2noc3c2CCC[C@@]32CCCc3sc(N)c(C#N)c32)n1)[C@@H]1CCCN1C` [II-11], the results for the IC50 in the series on SK-CO-1 cells and with SAS cells were 46 nM and 21 nM, respectively.

With `COC[C@H](C)Nc1cc(O[C@@H](C)[C@@H]2CCCN2C)nc(-c2onc3c2CCC[C@@]32CCCc3sc(N)c(C#N)c32)n1` [Example I-5], the solubility at 24 h was determined as 111 µg/mL (≈ 192 µM) in series [1] (setting [2]) and 109 µg/mL (≈ 189 µM) in series [1] (setting [3]).

Consider `C[C@H](Oc1cc(Nc2ccncn2)nc(-c2noc3c2CCC[C@@]32CCCc3sc(N)c(C#N)c32)n1)[C@@H]1CCCN1C` [II-15], for which the IC50 in the series on SK-CO-1 cells came to 91 nM; with SAS cells, 87 nM.
